Measured values as given in US7282507B2, “Indole derivatives as selective androgen receptor modulators (SARMS)” (Janssen Pharmaceutica N.V., priority 2004, dated 2007).
“And” between values parts separate entries of the source, which are not always exact repeats. Identical values can stand only once. Like-named read-outs stand apart in the source and are kept apart here.

Columns and labels:
[1] = target: T1, androgen receptor (AdEasy+rAR, COS-7 cells) (Rattus norvegicus, UniProt P15207); experiment: COS-7 Whole-Cell Androgen Receptor Binding Assay, Adenovirus Transduction; settings: for inhibition at 3 µM / % Inhibition, COS Binding: concentration of 3000 nM; for % Inhibition, COS Binding: 3 µM
T1 construct: expressed in transfected cells; host or cells: COS-7 cells transduced with adenovirus AdEasy+rAR
T1 sequence (P15207 1-902): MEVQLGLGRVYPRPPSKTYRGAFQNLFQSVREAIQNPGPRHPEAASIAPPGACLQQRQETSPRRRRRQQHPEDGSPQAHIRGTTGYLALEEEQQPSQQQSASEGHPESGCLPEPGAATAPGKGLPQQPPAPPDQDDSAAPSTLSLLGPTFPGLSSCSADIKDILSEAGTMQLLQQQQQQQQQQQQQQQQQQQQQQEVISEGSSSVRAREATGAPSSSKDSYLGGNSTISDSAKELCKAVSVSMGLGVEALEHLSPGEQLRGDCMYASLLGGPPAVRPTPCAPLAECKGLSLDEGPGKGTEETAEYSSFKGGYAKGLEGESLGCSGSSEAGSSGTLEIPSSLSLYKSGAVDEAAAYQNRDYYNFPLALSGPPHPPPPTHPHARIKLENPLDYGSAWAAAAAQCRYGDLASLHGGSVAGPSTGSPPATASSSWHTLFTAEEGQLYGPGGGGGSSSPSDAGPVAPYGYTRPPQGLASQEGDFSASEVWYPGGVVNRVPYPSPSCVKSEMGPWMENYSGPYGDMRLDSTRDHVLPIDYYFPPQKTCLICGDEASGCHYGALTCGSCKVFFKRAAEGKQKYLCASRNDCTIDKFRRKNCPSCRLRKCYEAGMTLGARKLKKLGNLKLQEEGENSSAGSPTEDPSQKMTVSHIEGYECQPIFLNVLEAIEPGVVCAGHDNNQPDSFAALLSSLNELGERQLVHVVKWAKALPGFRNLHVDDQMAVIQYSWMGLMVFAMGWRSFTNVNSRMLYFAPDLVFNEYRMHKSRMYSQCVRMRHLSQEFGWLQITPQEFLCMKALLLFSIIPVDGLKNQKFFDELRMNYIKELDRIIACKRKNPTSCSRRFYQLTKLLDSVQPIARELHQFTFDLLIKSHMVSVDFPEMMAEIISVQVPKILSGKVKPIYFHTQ
How it was run: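 COS-7 cells in phenol red-free DMEM/F12 with 10% charcoal-treated FBS were transduced with AdEasy+rAR adenovirus (moi 1:50 per well), exposed to test compound in duplicate and incubated for 48 h at 37° C. Cells were then lysed in 0.5% Triton X-100 and bound radioactivity counted by scintillation.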

[2] = target: T2, androgen receptor (AdEasy+rAR, L929 cells) (Rattus norvegicus, UniProt P15207); experiment: L929 Androgen Receptor Functional Assay, Adenovirus Transduction; assay type: cell-based; settings: for inhibition at 3 µM: L929, antagonist testing with R1881, 3000 nM; for % Inhibition, L929 androgen receptor functional assay: antagonist testing with R1881, 3000 nM
T2 construct: expressed in transfected cells; host or cells: L929 cells transduced with adenovirus AdEasy+rAR
T2 sequence (P15207 1-902): T1 sequence (P15207 1-902)
How it was run: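 L929 cells in phenol red-free, charcoal-stripped serum medium transduced with AdEasy+rAR (moi 1:500) and exposed 48 h at 37 °C to compound alone (agonist mode) or with R1881 (antagonist mode; 2.5 nM as the 2.5× dilution).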

[3] = read-out: IC50 (nM), COS Binding

Compound | inhibition at 3 µM [1] [%] | IC50 [1, 3] | inhibition at 3 µM [2] [%] | % Activity, L929 androgen receptor functional assay ([2]; agonist testing, 3000 nM) [%] | % Inhibition, COS Binding [1] [%] | % Inhibition, L929 androgen receptor functional assay ([2]; 3 µM) [%] | EC50 ([2]; agonist testing) [nM] | % Activity, L929 androgen receptor functional assay ([2]; agonist testing, @ 8000 nM) | IC50 ([2]; antagonist testing with R1881) [nM] | IC50 ([1]; IC50 (nM), COS Binding) [nM] | % Activity, L929 androgen receptor functional assay ([2]; agonist testing, 3000 nM, 3 µM)
CC(O)(CS(=O)(=O)c1ccc(O)cc1)c1cc2cc(Cl)c(C(F)(F)F)cc2[nH]1 (centres unmarked) [Compound 121] | 72 | > 1800 nM | 54 | −4 |  |  |  |  |  |  | 
CC(O)(CSc1ccc([N+](=O)[O-])cc1)c1cc2cc(Cl)c(C(F)(F)F)cc2[nH]1 (centres unmarked) [Compound 122] | 66 | > 1600 nM | 35 | 10 |  |  |  |  |  |  | 
COc1ccc(SCC(C)(O)c2cc3cc(Cl)c(C(F)(F)F)cc3[nH]2)cc1 (centres unmarked) [Compound 131] | 84 | > 1600 nM | -4 | −5 |  |  |  |  |  |  | 
CSCC(C)(O)c1cc2cc(Cl)c(C(F)(F)F)cc2[nH]1 (centres unmarked) [Compound 135] | 98 | 320 nM | 40 | 0 |  |  |  |  |  |  | 
CSCC(C)(O)c1cc2cc(C#N)c(C(F)(F)F)cc2[nH]1 (centres unmarked) [Compound 136] | 4.8 | 527 nM | 75 | 0 |  |  |  |  |  |  | 
CC(O)(CS(C)(=O)=O)c1cc2cc(Cl)c(C(F)(F)F)cc2[nH]1 (centres unmarked) [Compound 138] | 78 | 317 nM | 19 | 0 |  |  |  |  |  |  | 
CC(O)(CS(C)(=O)=O)c1cc2cc([N+](=O)[O-])c(C(F)(F)F)cc2[nH]1 (centres unmarked) [Compound 140] |  | > 1500 nM |  | 0 | 51.5 | 78 |  |  |  |  | 
CCSCC(C)(O)c1cc2cc([N+](=O)[O-])c(C(F)(F)F)cc2n1S(C)(=O)=O (centres unmarked) [Compound 141] | 42 | > 3000 nM | 42 | 0 |  |  |  |  |  |  | 
CCS(=O)(=O)CC(C)(O)c1cc2cc([N+](=O)[O-])c(C(F)(F)F)cc2[nH]1 (centres unmarked) [Compound 143] | 68 | > 1500 nM | 67 | 0 |  |  |  |  |  |  | 
CC(O)(CS(C)(=O)=O)c1cc2cc([N+](=O)[O-])c(C(F)(F)F)cc2[nH]1 (centres unmarked) [Compound 147] |  | > 3000 nM |  | 0 | 6.1 | 43 |  |  |  |  | 
CC(O)(CS(C)(=O)=O)c1cc2cc([N+](=O)[O-])c(C(F)(F)F)cc2[nH]1 (centres unmarked) [Compound 148] |  | > 2400 nM |  | 0 | 32 | 77 |  |  |  |  | 
CCS(=O)(=O)CC(C)(O)c1cc2cc([N+](=O)[O-])c(C(F)(F)F)cc2[nH]1 (centres unmarked) [Compound 151] |  | > 970 nM and 2190 nM |  |  | 55 |  | > 8000 | −1 @ 8000 nM % | 533 |  | 
CCS(=O)(=O)C[C@](C)(O)c1cc2cc([N+](=O)[O-])c(C(F)(F)F)cc2[nH]1 [Compound 156, 1-Ethanesulfonyl-2-(5-nitro-6-trifluoromethyl-1H-indol-2-yl)-propan-2-ol] | 42 |  | 35 | 2 | 52 | 23 |  |  |  | > 1000 | 
CCSCC(O)c1cc2cc([N+](=O)[O-])c(C(F)(F)F)cc2[nH]1 (centres unmarked) [Compound 158] | 62 | 160 nM and 550 nM | 21 |  | 56 | 29 |  |  |  |  | 3% and 2%
CC(O)(CSCc1ccccc1)c1cc2cc([N+](=O)[O-])c(C(F)(F)F)cc2[nH]1 (centres unmarked) [Compound 160] | 84 | 250 nM | 76 | 1 |  |  |  |  |  |  | 
